# Patent publication US10064909B2, “Compositions and methods for chronic use of a weight-gaining compound” (priority 2015, dated 2018)
# “Also recorded” adds a separate entry of the source.
# How the values were obtained:
# Type in all cases: in vivo
# [1] = tested on: IGF-1; test: Example 9 field study: IGF-1 serum levels; details: cats with CKD, 2 mg/kg once daily
# Procedure: A 1-mL blood sample was collected into a vacutainer tube containing no anticoagulant at the screening/qualification/Day 0, Day 30±2, Day 60±3 and Day 90±3 or at the last study visit (i.e. early removal). Blood samples were kept at room temperature and allowed to clot for about 1 hour. Clotted samples were centrifuged for approximately 15 minutes at 3000 RPM.
# [2] = Dose titration laboratory study (10 days): capromorelin serum levels; details: cats
# Procedure: This study defined a capromorelin oral solution dose regime that provides increased food intake and weight gain and the accompanying desired profile of IGF-1 serum levels. Laboratory adult cats were housed individually and divided into five groups (3/sex/group; n=6/group). Cats were dosed once daily for 10 consecutive days with either placebo, 1 mg/kg AT-002, 2 mg/kg AT-002, 3 mg/kg AT-002 or 4 mg/kg AT-002. The test article was a flavored solution formulation very similar to the final formulation. Study activities are summarized at Table 5.
# [3] = tested on: IGF-1; test: Laboratory cats modelling CKD safety pilot study: IGF-1 levels; details: cats with compromised kidney function, 2 mg/kg subcutaneous injection for 14 days
# Procedure: Sixteen cats with compromised kidney function were enrolled in the study and randomized to three groups. Animals assigned to Group 1 (n=6) were administered AT-002 once on Day 0 by intravenous catheter at a dose rate of 0.75 mg/kg per cat. Animals assigned to Group 2 (n=6) were administered the AT-002 daily for 14 days by subcutaneous injection at a dose rate of 2 mg/kg. Subcutaneous and intravenous treatment routes were used to assure that sufficient drug exposure occurred. Animals assigned to Group 3 (n=4) served as untreated controls.
# Blood samples were collected for capromorelin and/or IGF-1 analysis from animals assigned to Group 1 on Study Day 0. Blood samples were also collected from animals assigned to Groups 2 and 3 on Study Days −1 and 13 (prior to dosing) for hematology and clinical chemistry analysis. Appetite was assessed by food intake and weight gain. Bodyweight measurements were performed on Days −7, −1 (all groups) and on Day 13 (Groups 2 and 3 only). Food intake was monitored from Day −7 to Day 13 inclusive for animals assigned to Groups 2 and 3. Animals were observed daily for clinical signs.
# [4] = Safety of capromorelin administered daily to Beagle dogs for one year; details: for high dose relative to proposed clinical dose for dogs (safety margin): 52.4 mg/kg vs proposed clinical dose; for high dose relative to proposed clinical dose for dogs (safety margin) / tolerability / toxicity: L-tartrate; for tolerability / toxicity: oral gavage once daily, doses up to 52.4 mg/kg
# Procedure: This study evaluated the safety of capromorelin in dogs. Thirty-two Beagle dogs were randomly assigned to four groups (n=4/sex/group) and received 0 mg/kg, 0.39 mg/kg, 9.2 mg/kg, or 52.4 mg/kg capromorelin (with the dose calculated per the tartrate salt) once daily by oral gavage for 12 consecutive months. Safety parameters were evaluated including clinical signs, food consumption, bodyweight, clinical pathology, urinalysis, ophthalmology, electrocardiogram and vital signs. Capromorelin, GH and IGF-1 were measured in plasma samples collected at various time points during the study. At the end of the dosing period, dogs were humanely euthanized and necropsied. Selected organs were weighed and tissue samples collected and processed for microscopic examination.
# [5] = Safety of daily capromorelin in cats for 91 days at an oral dose of 6 mg/kg
# Procedure: This controlled study included two treatment groups with 4 adult cats receiving placebo (Group 1) and 8 adult cats receiving capromorelin (Formulation #9, as described above) (Group 2) for 91 consecutive days. All cats were offered food daily for a 6-hour period following an 11-day acclimation phase. All cats were weighed on Days −11, −1, 1, 14, 30, 59, 75, and 91. On Days 1 through 91, animals were orally administered capromorelin once daily via syringe at dose levels of 0 or 6 mg/kg. At one hour post-dose, all cats were offered food for a 6-hour period. Variables of interest included weight gain/loss, food consumption, clinical pathology, and serum analysis of IGF-1 and GH.
# On Days 1, 30, 59, and 91, blood samples were collected prior to daily dose administration and at 8 hours post-dose and processed to serum for analysis of IGF-1 and GH levels. Hematology parameters included white blood count (WBC), hemoglobin (HgB), red blood count (RBC), platelet count (PLT), platelet morphology, hematocrit (HCT), mean corpuscular volume (MCV), mean corpuscular hemoglobin (MCH), WBC differential, RBC and WBC morphology, mean corpuscular hemoglobin concentration (MCHC), reticulocytes, and blood smear. Serum chemistry parameters measured included albumin (ALB), creatine kinase (CK), albumin/globulin ratio (A\G), globulin (GLOB), alkaline phosphatase (ALP), glucose (GLU), fructosamine, alanine aminotransferase (ALT), blood urea nitrogen (BUN), phosphorus (PHOS), calcium (Ca), potassium (K), chloride (Cl), sodium (Na), cholesterol (CHOL), total protein (TP), creatinine (CRE), total bilirubin (TBIL), BUN/creatinine ratio, and sodium/potassium ratio.
# Urine samples were collected via cystocentesis and/or by collection in pans/trays from all cats for urinalysis. Before blood collection, all animals were fasted at least 8 hours. Urinalysis parameters measured included specific gravity (SG), pH (PH), color (COL), clarity (CLAR), blood (BLO), protein (UPRO), bilirubin (UBIL), glucose (UGLU), ketones (KET), and the microscopic examination of the sediments for RBC/hpf, WBC/hpf, bacteria (BACT), epithelial cells, mucus, casts, and crystals.
structure (smiles),measurement,setting,value
"CN1N=C2CCN(C(=O)[C@@H](COCc3ccccc3)NC(=O)C(C)(C)N)C[C@@]2(Cc2ccccc2)C1=O.O=C(O)C(O)C(O)C(=O)O [capromorelin, N-[(2R)-1-[(3aR)-2-methyl-3-oxo-3a-(phenylmethyl)-6,7-dihydro-4H-pyrazolo[4,3-c]pyridin-5-yl]-1-oxo-3-(phenylmethoxy)propan-2-yl]-2-amino-2-methylpropanamide L-tartrate]",IGF-1 serum levels following administration,[1],increase
same,capromorelin accumulation in serum,[2]; 10 days once daily,no evidence of capromorelin accumulation
same,capromorelin serum concentrations by 8 hours post-dose,[2]; all AT-002 treated groups,very low levels
same,absorption,[2]; oral flavored solution,well absorbed
same,time of maximum serum concentrations,"[2]; oral solution 1-4 mg/kg, post-dose",≤ 30 min
same,IGF-1 levels,[3],sustained increase
same,"pressure rate quotient (PRQ) interval, electrocardiogram","[4]; 52.4 mg/kg and 9.2 mg/kg groups, 1 to 2 hours following dosing",slight increases
same,absolute liver weights,[4]; 52.4 mg/kg dose,Increased
same,"red blood cells, hemoglobin and hematocrit",[4]; 52.4 mg/kg group,slight deceases
same,"cholesterol, HDL and alkaline phosphatase serum levels",[4]; 52.4 mg/kg group compared to placebo,statistically significantly increased
same,high dose relative to proposed clinical dose for dogs (safety margin),[4],about 17.5 times
same,high dose relative to proposed clinical dose for dogs (safety margin),[4]; listed as Capromorelin,approximately 17.5 times
same,hepatocellular cytoplasmic vacuolation,[4]; all capromorelin treated groups,slight increase
same,clinical signs related to capromorelin,"[4]; dogs, 12 months, noted sporadically",salivation and loose stool
same,capromorelin plasma levels: accumulation,"[4]; dogs, Days 90, 181 and 349",no accumulation of drug
same,reddening/swollen paws,"[4]; dogs, higher dose treatments",increased incidence
same,tolerability / toxicity,"[4]; dogs, 12 months",well-tolerated; also recorded: favorable toxicology
same,tolerability / toxicity,"[4]; dogs, 12 months, listed as Capromorelin",minimal toxicity
same,"effects on food consumption, bodyweight, ophthalmic exams, vital signs or gross pathology","[4]; dogs, up to 52.4 mg/kg daily, 12 months",no negative effects
same,resolution of post-dose clinical observations,[5]; 6 mg/kg,usually resolved within five minutes
same,mean rate of bodyweight change,"[5]; 6 mg/kg oral once daily, 91 days",0.0086
same,mean bodyweight change from baseline (Day 1),"[5]; 6 mg/kg oral once daily, Day 14",0.26 kg
same,mean bodyweight change from baseline (Day 1),"[5]; 6 mg/kg oral once daily, Day 30",0.46 kg
same,mean bodyweight change from baseline (Day 1),"[5]; 6 mg/kg oral once daily, Day 59",0.64 kg
same,mean bodyweight change from baseline (Day 1),"[5]; 6 mg/kg oral once daily, Day 75",0.73 kg
same,mean bodyweight change from baseline (Day 1),"[5]; 6 mg/kg oral once daily, Day 91",0.80 kg
same,"food consumption, mean change from baseline","[5]; 6 mg/kg oral once daily, baseline average of Days -3 through -1",14.95 grams
same,"mean rate of bodyweight change, factor vs placebo","[5]; 6 mg/kg, 0.0086 vs 0.0010 for placebo",8.6
same,chronic hyperglycemia,"[5]; 6 mg/kg, 91 days",no chronic hyperglycemia
same,"food consumption, mean rate of change","[5]; 6 mg/kg, a rate of one = one more gram of food consumed each day",1.2396
same,creatinine levels,"[5]; 6 mg/kg, acclimation to Day 91, reference range 0.6 to 2.4 mg/dL",within the normal reference range
same,BUN levels,"[5]; 6 mg/kg, acclimation to Day 91, reference range 14 to 36 mg/dL",within the normal reference range
same,serum glucose levels,"[5]; 6 mg/kg, compared to the placebo group",increased
same,serum fructosamine,"[5]; 6 mg/kg, reference range 191 to 349 μmol/L",No fructosamine values exceeded the normal reference range
same,most common clinical observations,"[5]; 6 mg/kg, seen immediately post-dose","hypersalivation (ptyalism), lip smacking, emesis, and head shaking"
